For one test, the target named is Dipeptidyl peptidase 2 (Homo sapiens, UniProt Q9UHL4). Kind of test: Inhibition of QPP.
For the next test, the target named is Dipeptidyl peptidase 4 (Homo sapiens, UniProt P27487).
In another test the target is Dipeptidyl peptidase 9 (Homo sapiens, UniProt Q86TI2).
For a further test, the target named is Dipeptidyl peptidase 8 (Homo sapiens, UniProt Q6V1X1). Description: Inhibition of DPP8.

The text below walks through data of ChEMBL document CHEMBL1148885, “Modeling assisted rational design of novel, potent, and selective pyrrolopyrimidine DPP-4 inhibitors” (Bioorg Med Chem Lett, 2007).

Dipeptidyl peptidase 4, sequence (P27487 whole entry): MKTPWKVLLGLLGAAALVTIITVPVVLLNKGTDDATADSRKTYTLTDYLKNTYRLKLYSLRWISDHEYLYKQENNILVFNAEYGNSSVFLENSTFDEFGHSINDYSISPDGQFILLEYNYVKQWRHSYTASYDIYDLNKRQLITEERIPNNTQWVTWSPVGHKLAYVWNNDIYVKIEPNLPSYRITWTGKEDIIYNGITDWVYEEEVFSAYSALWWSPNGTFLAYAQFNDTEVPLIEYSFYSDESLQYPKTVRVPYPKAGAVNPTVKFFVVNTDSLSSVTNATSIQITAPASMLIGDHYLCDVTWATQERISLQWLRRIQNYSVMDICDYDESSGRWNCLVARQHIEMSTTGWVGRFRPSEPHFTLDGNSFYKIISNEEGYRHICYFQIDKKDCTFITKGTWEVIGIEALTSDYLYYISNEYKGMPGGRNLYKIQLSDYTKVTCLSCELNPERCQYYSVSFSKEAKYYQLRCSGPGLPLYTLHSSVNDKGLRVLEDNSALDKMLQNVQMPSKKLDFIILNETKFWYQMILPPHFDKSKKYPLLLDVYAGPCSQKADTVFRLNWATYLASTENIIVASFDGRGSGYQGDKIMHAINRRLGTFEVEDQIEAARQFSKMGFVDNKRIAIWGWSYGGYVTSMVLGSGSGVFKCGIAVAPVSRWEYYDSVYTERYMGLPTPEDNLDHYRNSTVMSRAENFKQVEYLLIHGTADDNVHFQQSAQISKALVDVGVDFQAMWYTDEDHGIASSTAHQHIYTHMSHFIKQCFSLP
Dipeptidyl peptidase 8, sequence (Q6V1X1 whole entry): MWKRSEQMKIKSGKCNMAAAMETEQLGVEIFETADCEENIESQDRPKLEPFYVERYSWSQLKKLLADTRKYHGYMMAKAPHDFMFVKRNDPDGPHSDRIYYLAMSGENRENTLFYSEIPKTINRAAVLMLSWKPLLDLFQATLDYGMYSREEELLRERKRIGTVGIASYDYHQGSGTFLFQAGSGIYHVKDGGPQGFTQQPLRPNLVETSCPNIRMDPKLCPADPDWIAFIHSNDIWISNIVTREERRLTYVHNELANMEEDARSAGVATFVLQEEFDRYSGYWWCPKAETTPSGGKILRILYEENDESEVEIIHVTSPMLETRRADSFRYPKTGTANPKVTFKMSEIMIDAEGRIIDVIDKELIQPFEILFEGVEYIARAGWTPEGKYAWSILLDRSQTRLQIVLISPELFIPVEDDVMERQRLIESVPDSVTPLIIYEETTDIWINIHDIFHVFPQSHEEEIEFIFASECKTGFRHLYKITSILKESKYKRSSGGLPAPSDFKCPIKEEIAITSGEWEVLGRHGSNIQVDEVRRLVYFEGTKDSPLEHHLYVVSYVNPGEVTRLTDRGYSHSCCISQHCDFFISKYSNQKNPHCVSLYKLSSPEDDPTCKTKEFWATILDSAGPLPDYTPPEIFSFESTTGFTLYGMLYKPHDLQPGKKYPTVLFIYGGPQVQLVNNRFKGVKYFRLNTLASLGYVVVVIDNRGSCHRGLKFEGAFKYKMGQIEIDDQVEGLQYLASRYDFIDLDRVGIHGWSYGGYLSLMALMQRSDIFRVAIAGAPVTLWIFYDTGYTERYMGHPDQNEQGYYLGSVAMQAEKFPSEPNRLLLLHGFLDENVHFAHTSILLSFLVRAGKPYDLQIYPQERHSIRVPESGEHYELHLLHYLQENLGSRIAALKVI
Dipeptidyl peptidase 9, sequence (Q86TI2 whole entry): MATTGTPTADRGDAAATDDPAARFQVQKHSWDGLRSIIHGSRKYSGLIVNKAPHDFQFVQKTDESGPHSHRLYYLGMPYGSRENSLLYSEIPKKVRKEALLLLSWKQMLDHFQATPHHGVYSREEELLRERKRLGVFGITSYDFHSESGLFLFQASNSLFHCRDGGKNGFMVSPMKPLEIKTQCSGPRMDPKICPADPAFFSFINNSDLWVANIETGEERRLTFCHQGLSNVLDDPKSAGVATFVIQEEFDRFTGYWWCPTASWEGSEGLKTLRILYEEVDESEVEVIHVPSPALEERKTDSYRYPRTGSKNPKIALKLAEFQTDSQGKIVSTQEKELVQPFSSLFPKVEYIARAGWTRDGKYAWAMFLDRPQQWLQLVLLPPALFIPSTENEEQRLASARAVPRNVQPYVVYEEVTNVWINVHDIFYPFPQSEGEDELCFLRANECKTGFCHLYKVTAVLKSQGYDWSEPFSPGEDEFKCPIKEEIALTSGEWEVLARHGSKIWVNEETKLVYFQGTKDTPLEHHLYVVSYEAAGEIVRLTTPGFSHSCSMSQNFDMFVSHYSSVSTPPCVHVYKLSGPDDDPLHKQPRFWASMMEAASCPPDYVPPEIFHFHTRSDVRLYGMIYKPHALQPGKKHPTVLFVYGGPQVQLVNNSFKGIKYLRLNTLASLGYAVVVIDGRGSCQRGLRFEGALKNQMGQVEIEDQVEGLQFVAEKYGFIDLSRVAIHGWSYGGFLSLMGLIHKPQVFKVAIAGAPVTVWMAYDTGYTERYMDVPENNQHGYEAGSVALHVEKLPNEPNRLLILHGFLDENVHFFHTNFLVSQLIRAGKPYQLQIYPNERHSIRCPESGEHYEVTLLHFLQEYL

Usually IC50 stands for the midpoint of a concentration-inhibition curve. A higher IC50 goes with weaker potency. As for `N[C@H]1C[C@@H](N2Cc3cncnc3C2)CC[C@@H]1c1cc(F)c(F)cc1F`, the IC50 against Dipeptidyl peptidase 2 is > 100 µM; on Dipeptidyl peptidase 4 it was 0.00067 µM.

Consider `N[C@H]1C[C@@H](N2Cc3cnc(C4CC4)nc3C2)CC[C@@H]1c1cc(F)c(F)cc1F`, for which the half-inhibitory concentration (IC50) against Dipeptidyl peptidase 2 is 61 µM; on Dipeptidyl peptidase 4 it was 0.0053 µM.

As for `N[C@H]1C[C@@H](N2CCn3c(nnc3C(F)(F)F)C2)CC[C@@H]1c1cc(F)c(F)cc1F`, the half-inhibitory concentration (IC50) against Dipeptidyl peptidase 9, against Dipeptidyl peptidase 2 and at Dipeptidyl peptidase 8 was > 100 µM in each case.

In the case of `N[C@H]1C[C@@H](N2Cc3ccccc3C2)CC[C@@H]1c1cc(F)c(F)cc1F`, the figures for the IC50 on Dipeptidyl peptidase 2 and on Dipeptidyl peptidase 4 were 68 µM and 0.0066 µM, respectively.
